# In patent US20240109887A1 (Viva Star Biosciences (Suzhou) Co., Ltd., priority 2021, published 2024):
# Experiments:
# [1] = biological target: T1, KRAS-WT/SOS1 (Homo sapiens, UniProt Q07889); assay: KRAS-WT/SOS1 binding assay (HTRF); details: Tag2-KRAS-WT with Tag1-SOS1, 10 μM GTP
# T1 sequence (Q07889 1-1333): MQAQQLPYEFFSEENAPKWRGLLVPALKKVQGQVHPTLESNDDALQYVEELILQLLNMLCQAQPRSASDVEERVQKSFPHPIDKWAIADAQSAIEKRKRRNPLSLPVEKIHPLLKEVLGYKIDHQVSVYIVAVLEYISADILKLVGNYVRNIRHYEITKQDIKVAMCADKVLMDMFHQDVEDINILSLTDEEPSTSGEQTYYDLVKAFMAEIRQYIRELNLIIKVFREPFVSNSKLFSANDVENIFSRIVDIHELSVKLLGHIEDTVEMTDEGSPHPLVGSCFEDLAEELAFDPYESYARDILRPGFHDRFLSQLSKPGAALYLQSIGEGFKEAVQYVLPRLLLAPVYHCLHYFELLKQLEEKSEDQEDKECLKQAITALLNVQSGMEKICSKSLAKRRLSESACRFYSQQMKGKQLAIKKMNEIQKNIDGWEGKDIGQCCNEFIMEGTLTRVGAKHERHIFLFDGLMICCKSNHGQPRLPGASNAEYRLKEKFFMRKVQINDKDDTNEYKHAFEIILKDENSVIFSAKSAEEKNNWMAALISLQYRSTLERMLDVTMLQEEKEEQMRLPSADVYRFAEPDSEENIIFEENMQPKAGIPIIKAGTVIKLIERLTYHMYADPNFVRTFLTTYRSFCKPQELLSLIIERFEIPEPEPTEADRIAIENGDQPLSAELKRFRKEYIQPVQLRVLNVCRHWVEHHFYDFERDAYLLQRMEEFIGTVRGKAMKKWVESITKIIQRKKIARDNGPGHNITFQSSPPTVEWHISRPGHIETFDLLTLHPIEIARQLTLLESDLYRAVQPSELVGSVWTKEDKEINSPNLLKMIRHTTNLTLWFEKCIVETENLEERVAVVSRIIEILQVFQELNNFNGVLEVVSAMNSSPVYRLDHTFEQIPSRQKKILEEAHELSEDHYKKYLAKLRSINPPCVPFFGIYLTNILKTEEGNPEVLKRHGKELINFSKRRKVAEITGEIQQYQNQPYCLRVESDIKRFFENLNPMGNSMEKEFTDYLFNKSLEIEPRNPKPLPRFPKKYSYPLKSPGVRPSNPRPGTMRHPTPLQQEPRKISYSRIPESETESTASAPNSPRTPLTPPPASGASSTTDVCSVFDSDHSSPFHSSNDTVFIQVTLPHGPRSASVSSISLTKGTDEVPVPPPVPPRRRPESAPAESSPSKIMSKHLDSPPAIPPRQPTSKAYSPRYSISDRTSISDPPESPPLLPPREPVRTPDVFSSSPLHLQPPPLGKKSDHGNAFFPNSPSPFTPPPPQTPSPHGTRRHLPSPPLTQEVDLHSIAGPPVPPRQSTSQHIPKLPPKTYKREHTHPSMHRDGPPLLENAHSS
# [2] = biological target: T2, KRAS G12D/SOS1 (Homo sapiens, UniProt Q07889); assay: KRAS G12D/SOS1 binding assay (HTRF); details: Tag2-KRAS G12D with Tag1-SOS1, 10 μM GTP
# T2 sequence (Q07889 1-1333): T1 sequence (Q07889 1-1333)
compound,measurement,setting,value
"C[C@@H](NC(=O)c1cn([C@H]2CC[C@@H](C(=O)N(C)CCO)CC2)c(=O)c2c[nH]nc12)c1cccc2c1CCC2(F)F [Example 11, N—((R)-1-(1,1-difluoro-2,3-dihydro-1H-inden-4-yl)ethyl)-5-((1s,4S)-4-((2-hydroxyethyl)(methyl)carbamoyl)cyclohexyl)-4-oxo-4,5-dihydro-2H-pyrazolo[4,3-c]pyridine-7-carboxamide]","Activity Data in Kras: SOS1 Assay, Wild Type",[1],C (C: 500~5 μM)
same,"Activity Data in Kras: SOS1 Assay, G12D",[2],C (C: 500~5 μM)
